The target of one assay is T1, cyclooxygenase 2 (Homo sapiens, UniProt P35354).
T1 sequence (P35354 18-604): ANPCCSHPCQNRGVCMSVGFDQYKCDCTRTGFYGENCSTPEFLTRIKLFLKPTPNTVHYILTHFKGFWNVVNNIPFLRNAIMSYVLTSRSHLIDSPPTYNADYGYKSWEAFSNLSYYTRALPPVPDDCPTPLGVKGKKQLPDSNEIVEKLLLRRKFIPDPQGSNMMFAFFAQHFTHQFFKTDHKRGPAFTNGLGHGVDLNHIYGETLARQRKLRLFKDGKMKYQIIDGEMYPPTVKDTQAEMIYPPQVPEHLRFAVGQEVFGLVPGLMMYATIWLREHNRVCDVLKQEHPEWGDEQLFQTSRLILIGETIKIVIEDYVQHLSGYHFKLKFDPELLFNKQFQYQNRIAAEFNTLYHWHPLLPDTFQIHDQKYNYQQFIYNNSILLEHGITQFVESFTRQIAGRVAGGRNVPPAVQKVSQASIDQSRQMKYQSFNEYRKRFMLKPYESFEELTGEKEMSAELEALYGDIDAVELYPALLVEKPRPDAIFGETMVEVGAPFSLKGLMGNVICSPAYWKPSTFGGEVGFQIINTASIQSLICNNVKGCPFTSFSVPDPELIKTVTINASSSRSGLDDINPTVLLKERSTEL
The procedure:
(§1) (Specific Inhibitory Effect on Cyclooxygenase)
(§2) After the incubation, 2 μl of a 5 mM solution of arachidonic acid (dissolved in ethanol) were added (end concentration: 100 μM), followed by incubation for additional 5 minutes. After the incubation for 5 minutes, 10 μl of a 22 mM solution of ferrous chloride were added, and the resultant mixture was cooled down to 0° C. to stop the reaction. After stopping the reaction, the reaction mixture was centrifuged at 10,000×g for 5 minutes to determine the amount of prostaglandin E2 in the supernatant liquid thereof in accordance with the enzyme immunoassay. The cyclooxygenase-inhibiting effect of each test agent was determined by the average value of the amounts of prostaglandin E2 produced, which were obtained by repeating the above process twice, and the amount of prostaglandin E2 produced by using DMSO in place of the test agent to conduct the same treatment as described above.

The target of the next assay is T2, cyclooxygenase 1 (Ovis aries, UniProt P05979).
T2 sequence (P05979 25-600): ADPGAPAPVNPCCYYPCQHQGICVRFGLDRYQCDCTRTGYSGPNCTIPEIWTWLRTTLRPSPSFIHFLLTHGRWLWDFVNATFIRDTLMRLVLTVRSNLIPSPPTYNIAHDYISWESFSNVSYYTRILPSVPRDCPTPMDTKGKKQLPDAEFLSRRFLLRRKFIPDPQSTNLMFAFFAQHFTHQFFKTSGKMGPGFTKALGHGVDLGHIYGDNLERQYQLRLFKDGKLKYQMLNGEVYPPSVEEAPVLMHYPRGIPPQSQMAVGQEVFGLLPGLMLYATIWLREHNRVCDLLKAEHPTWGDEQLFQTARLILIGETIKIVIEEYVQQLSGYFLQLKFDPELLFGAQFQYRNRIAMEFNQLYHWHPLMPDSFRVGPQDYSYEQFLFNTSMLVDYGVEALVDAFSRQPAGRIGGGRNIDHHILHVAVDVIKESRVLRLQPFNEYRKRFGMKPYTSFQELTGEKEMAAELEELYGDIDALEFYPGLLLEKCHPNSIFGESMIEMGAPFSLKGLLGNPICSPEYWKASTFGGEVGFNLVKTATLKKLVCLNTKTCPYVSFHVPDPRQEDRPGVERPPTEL
The assay is described as follows: biochemical. The note with it: for Inhibitory effect on cyclooxygenase 1 (in words): 0.01-100 μM. The procedure:
as §1, §2

Assay [1] has as its system Production of Thromboxane B2 in Platelet. Description: Effect on production of thromboxane B2 in platelet. The format is cell-based, rabbit. The note with it: for inhibitory effect on the production of thromboxane B2 (in words): 0.001-100 μM; for inhibition at 0.001 µM / inhibition at 0.01 µM / inhibition at 0.1 µM / inhibition at 1 µM / inhibition at 10 µM / inhibition at 100 µM: Oryctolagus cuniculus, Platelet, rabbit platelets, read-out: Percent inhibition of thromboxane B2. The procedure: (Effect of 4'-Hydroxydiclofenac on Production of Thromboxane B2 in Platelet)
Fresh blood [adding 1 volume of ACD (acid-citrate dextrose; consisting of 65 mM citric acid, 85 mM sodium citrate and 110 mM glucose) to 9 volumes of the blood] collected from the heart of a rabbit under Nembutal anesthesia was centrifuged at 200 ×g for 10 minutes to collect the supernatant liquid thereof. The supernatant liquid was centrifuged at 700 ×g for 10 minutes, and precipitated platelets were suspended in an isotonic trishydrochloric acid buffer solution [50 mM tris(hydroxymethyl)aminomethane, 150 mM NaCl, 1 mM EDTA (ethylenediaminetetraacetic acid) and 5 mM glucose; pH: 7.2]. The suspension was further centrifuged at 700 ×g for 10 minutes and washed. […] The thus-adjusted platelet suspension was poured in 1-ml portions into test tubes. […] After the incubation, 10 μl (end concentration: 2 mM) of 200 mM CaCl2 and 5 μl (end concentration: 5 μM) of 1 mM arachidonic acid were added, followed by incubation for additional 5 minutes. After the incubation, the test tube was transferred to an ice bath to stop the reaction. The test tube was centrifuged at 1,500 ×g and 4° C. for 10 minutes. After the supernatant liquid thereof was filtered through a membrane filter (pore size: 0.22 μm, MILLIPORE), the amount of thromboxane B2 in the filtrate was determined in accordance with the enzyme immunoassay. The effect of each test agent on the production of thromboxane B2 in the platelet was determined by the average value of the amounts of thromboxane B2 produced, which were obtained by repeating the above process 3 times, and the amount of thromboxane B2 produced by using DMSO in place of the test agent to conduct the same treatment as described above.

For assay [2], the system named is Production of Prostaglandin E2 by Stimulation of Human Synovial Cell by IL-1β. Description: Effect on production of prostaglandin E2 by stimulation of human synovial cell by IL-1β. The note with it: for inhibition at 0.001 µM / inhibition at 0.01 µM / inhibition at 0.1 µM / inhibition at 1 µM / inhibition at 10 µM / inhibition at 100 µM: Synovial cell, human synovial cells, IL-1β, 22 hours, read-out: Percent inhibition of prostaglandin E2. It counts as cell-based. On the procedure: (Effect of 4'-Hydroxydiclofenac on Production of Prostaglandin E2 by Stimulation of Human Synovial Cell by IL-1β)
Synovial tissue obtained from a patient suffering from chronic articular rheumatism was placed in a Petri dish, cut and shredded, to which a 0.2% solution of collagenase was added. The mixture was left over for 2 hours under conditions of 5% CO2 and 37° C. An equiamount of a 0.25% solution of trypsin was further added, and the resultant mixture was left over for 2 hours. After cells isolated were collected and centrifuged (170 ×g, 10 minutes) to remove the supernatant liquid thereof, a medium [obtained by adding 10% FCS (fetal calf serum), 2 mM glutamine, 100 U/ml of penicillin, 100 μg/ml of streptomycin and 25 ng/ml of Fungizone to DMEM (Dulbecco modified minimum essential medium)] was added to the cells to wash them once. The cells were suspended in the medium, and the suspension was poured into a Petri dish and cultured under conditions of 5% CO2 and 37° C. Cells adhered to the bottom of the Petri dish were provided as synovial cells. The cells (1×10^5 cells/ml) were poured in 1-ml portions into wells of a 24-well plate and cultured under conditions of 5% CO2 and 37° C. After the cells were proliferated to an extent that they covered almost the entire surface of each well, the medium was changed to an SFM-101 medium (product of Nissui Seiyaku K.K.) containing 1% FCS. […] Furthermore, 10 μl (end concentration: 200 pg/ml) of a solution of IL-1βand 10 μl (end concentration: 10 μM) of arachidonic acid were added to conduct culture for 22 hours under conditions of 5% CO2 and 37° C. After the culture, the supernatant liquid thereof was collected and filtered through a membrane filter (pore size: 0.22 μm, MILLIPORE), thereby determining the amount of prostaglandin E2 in the filtrate in accordance with the enzyme immunoassay. The effect of each test agent on the production of prostaglandin E2 by the human synovial cells was determined by the average value of the amounts of prostaglandin E2 produced, which were obtained by repeating the above process 3 times, and the amount of prostaglandin E2 produced by using DMSO in place of the test agent to conduct the same treatment as described above.

[3] abbreviates: read-out: Percent inhibition of cyclooxygenase 1.

Like-named read-outs stand apart in the source and are kept apart here.

The text below walks through data of patent publication US5958978A, “Specific cyclooxygenase 2 inhibitor and anti-inflammatory agent” (Kabushiki Kaisha Yakult Honsha, priority 1995, dated 1999).

On to `O=C(O)Cc1ccccc1Nc1c(Cl)cc(O)cc1Cl` [4'-Hydroxydiclofenac, 2-(2,6-dichloro-4-hydroxyanilino)phenylacetic acid], for which the “Percent inhibition of cyclooxygenase 2” value at cyclooxygenase 2 (0.01 μM) turned out to be 21%; at cyclooxygenase 2 (0.1 μM) it was 18%; on cyclooxygenase 2 (1 μM), 22%; at cyclooxygenase 2 (10 μM), 82%; at cyclooxygenase 2 (100 μM) it was 90%. In addition, the “Inhibitory effect on cyclooxygenase 2 (in words)” value at cyclooxygenase 2 (0.01-100 μM) is given as “only an inhibitory effect on the cyclooxygenase 2 activity is recognized”. In addition, the “Percent inhibition of cyclooxygenase 1” value is on record as 0% on cyclooxygenase 1 (0.01 μM); 0% on cyclooxygenase 1 (0.1 μM); 13% at cyclooxygenase 1 (1 μM); 3% on cyclooxygenase 1 (10 μM); 15% at cyclooxygenase 1 (100 μM). For the same compound, the “Inhibitory effect on cyclooxygenase 1 (in words)” value on cyclooxygenase 1 is listed as “no inhibitory effect on cyclooxygenase 1 is recognized”. Moreover, in assay [1], the “inhibitory effect on the production of thromboxane B2 (in words)” value (from here on “inhibitory effect on the production”) is given as “clearly weak compared with indomethacin”. The figures for the inhibition at 0.001 µM in assay [1] and in assay [2] were -25% and -3%, respectively. Further, the inhibition at 0.01 µM in assay [1] was -25%; in assay [2], 0%. The inhibition at 0.1 µM stood at 0% in assay [1] and 35% in assay [2]. Moreover, the inhibition at 1 µM in assay [1] is 7%; in assay [2], 100%. In addition, the inhibition at 10 µM in assay [1] is 15%; in assay [2], 100%. Besides, the figures for the inhibition at 100 µM in assay [1] and in assay [2] were 77% and 100%, respectively. The “inhibitory effect on prostaglandin E2 (in words)” value in assay [2] (0.001-100 μM, compared with indomethacin) is recorded as “almost comparable to indomethacin”.

Take `O=C(O)Cc1ccccc1Nc1c(Cl)cccc1Cl` [Diclofenac]: the “Inhibitory effect on cyclooxygenase 1 (in words)” value at cyclooxygenase 1 is “Inhibitory effects on cyclooxygenase 1 and cyclooxygenase 2 are recognized”. At cyclooxygenase 1 (setting [3]), the inhibition at 0.01 µM stood at 25%, the inhibition at 0.1 µM was 25%, the inhibition at 1 µM was 38% and the inhibition at 10 µM worked out at 57%. Moreover, the inhibition at 100 µM at cyclooxygenase 1 (setting [3]) was determined as 87%. Further, in assay [1], the “inhibitory effect on the production” value is “an inhibitory effect on the production of thromboxane B2 is recognized”, the inhibition at 0.001 µM was 46%, the inhibition at 0.01 µM was found to be 70% and the inhibition at 0.1 µM is 68%. In addition, in assay [1], the inhibition at 1 µM worked out at 77%, the inhibition at 10 µM was 93% and the inhibition at 100 µM came out at 99%. In assay [2], the inhibition at 0.001 µM came to 14%, the inhibition at 0.01 µM stood at 61%, the inhibition at 0.1 µM is 99% and the inhibition at 1 µM was found to be 100%. Moreover, in assay [2], the inhibition at 10 µM was 100% and the inhibition at 100 µM turned out to be 100%.

For `COc1ccc2c(c1)c(CC(=O)O)c(C)n2C(=O)c1ccc(Cl)cc1` [Indomethacin], in assay [1], the “inhibitory effect on the production” value is reported as “an inhibitory effect on the production of thromboxane B2 is recognized”, the inhibition at 0.001 µM was found to be 2%, the inhibition at 0.01 µM came out at 50% and the inhibition at 0.1 µM worked out at 76%. In assay [1], the inhibition at 1 µM is 77%, the inhibition at 10 µM amounted to 78% and the inhibition at 100 µM was 78%. Besides, in assay [2], the inhibition at 0.001 µM was -3%, the inhibition at 0.01 µM is 5%, the inhibition at 0.1 µM turned out to be 62% and the inhibition at 1 µM was 100%. In assay [2], the inhibition at 10 µM turned out to be 100% and the inhibition at 100 µM was 100%.
